Source: patent US20150218212A1, “FLUORINATED EPOXYKETONE-BASED TETRAPEPTIDE COMPOUNDS AND USES THEREOF AS PROTEASOME INHIBITORS” (FLUORINOV PHARMA INC., priority 2012, published 2015)

Assays:
[1] = target: T1, proteasome Caspase-like (C-L) activity (Mus musculus, UniProt P70195+Q60692); assay: Pharmacodynamic proteasome activity in murine red blood cells, C-L; assay type: in vivo, NOD/SCID mice; settings: iv, mice, 2 mg/kg i.v., time 0, read-out: Caspase-like (C-L) mean residual activity relative to vehicle treated controls
T1 construct: RBCs were lysed with assay lysis buffer and incubated on ice for 30 minutes; from tissue; host or cells: red blood cells of NOD/SCID mice
Experimental: Cells were harvested by centrifugation at 1,200 rpm at room temperature. Cell pellets were washed with PBS (phosphate buffered saline) and lysed with assay lysis buffer (50 mM HEPES (N-2-hydroxyethylpiperazine-N′-2-ethanesulfonic acid), pH 7.5; 150 mM NaCl; 1% Triton X-100; 2 mM ATP). Cell lysates were incubated on ice for 30 minutes, mixed by vortex every 5 minutes, and then centrifuged at 12,000 g for 10 minutes. The supernatant was transferred to a 96-well plate. For each assay, 10 μg of total protein were incubated for 1 hour at 37° C. with increasing concentrations (1 nM to 10 μM) of test compound diluted in assay buffer (50 mM tris-HCl (tris(hydroxymethyl)aminomethane-HCl), pH 7.5; 150 mM NaCl). DMSO alone was used as a control in every assay plate. After incubation, a specific fluorogenic proteasome substrate was added to each assay reaction at a final concentration of 40 μM in a total volume of 100 μL. N-Succinyl-Leu-Leu-Val-Tyr-7-amino-4-methylcoumarin (Suc-Leu-Leu-Val-Tyr-AMC) was used for measuring chymotrypsin-like (CT-L) activity, t-butoxycarbonyl-Leu-Arg-Arg-7-amino-4-methylcoumarin (Boc-Leu-Arg-Arg-AMC) for trypsin-like (T-L) activity, and benzyloxycarbonyl-L-leucyl-L-leucyl-L-glutamyl-7-amino-4-methylcoumarin (Z-Leu-Leu-Glu-AMC) for caspase-like (C-L) activity. The excitation wavelength was set at 360 nm and the fluorescence emission wavelength of AMC was detected at 460 nm. The fluorescence of free AMC released during the enzymatic reaction was measured with a SpectraMax M5 fluorescent spectrophotometric plate reader (Molecular Devices, Sunnyvale, Calif.). AMC release rate was measured at 37° C. in a kinetic mode, recording every 5 minutes for 30 minutes. Experiments were performed in triplicate and repeated at least twice.
All mouse experiments were performed in accordance with approval from the Ontario Cancer Institute institutional animal review board. Five- to six-week-old male non-obese diabetic/severe combined immunodeficient (NOD/SCID) mice were grouped randomly (n=3 mice per group). Mice were administered vehicle (5% DMSO, 20% Cremophor) or compounds of Formula I at different doses either intravenously or by oral gavage, and venous blood samples (20-50 μL) were collected from each mouse over 24 hours. Blood samples were mixed with heparin (APP Pharmaceuticals; Schaumburg, Ill.) in 0.5 mL tubes in accordance with the manufacturer's instructions. After centrifugal separation at 3,000 g for 10 minutes, red blood cells (RBCs) in the bottom layer were transferred into a new tube and stored at −70° C. until use. RBCs were lysed with assay lysis buffer and incubated on ice for 30 minutes, mixing by vortex every 5 minutes, and then centrifuged at 12,000 g for 10 minutes. The supernatant was transferred to a 96-well plate and proteasome activity was measured as described above for tumor cell lysates.
Proteasome subunit activity (Chymotrypsin-like, Trypsin-like, Caspase-like, CT-L, T-L, C-L, respectively) were monitored over the course of 24 hrs following […] administration of representative compounds of Formula I. NOD/SCID mice were treated with compounds of Formula I (2 mg/kg by iv administration) or vehicle control and carfilzomib for up to 24 hours, as described above. Table 9 summarizes the data on pharmacodynamic activity of representative compounds of Formula I following a dose of 2 mg/kg intravenous (i.v) administration to mice. Data are presented as mean residual activity (SEM) relative to vehicle treated controls.

NCI-H226 = assay: NCI screening panel, NCI-H226 (Non-Small Cell Lung Cancer); assay type: cell-based, human
Experimental: Representative compounds of Formula I were screened using the National Cancer Institute (NCI) screening panel, which consists of a panel of human tumor cell lines, representing leukemia, melanoma, and cancers of the lung, colon, ovary, breast, prostate and renal system.
After 24 h, two plates of each cell line are fixed in situ with TCA, to represent a measurement of the cell population for each cell line at the time of drug addition (Tz). Experimental drugs are solubilised in dimethyl sulfoxide at 400-fold the desired final maximum test concentration and stored frozen prior to use. At the time of drug addition, an aliquot of frozen concentrate is thawed and diluted to twice the desired final maximum test concentration with complete medium containing 50 μg/mL gentamicin. Additional four, 10-fold or ½ log serial dilutions are made to provide a total of five drug concentrations plus control. Aliquots of 100 μl of these different drug dilutions are added to the appropriate microtiter wells already containing 100 μl of medium, resulting in the required final drug concentrations.
Following drug addition, the plates are incubated for an additional 48 h at 37° C., 5% CO2, 95% air, and 100% relative humidity. For adherent cells, the assay is terminated by the addition of cold TCA (trichloroacetic acid). Cells are fixed in situ by the gentle addition of 50 μl of cold 50% (w/v) TCA (final concentration, 10% TCA) and incubated for 60 minutes at 4° C. The supernatant is discarded, and the plates are washed five times with tap water and air dried. Sulforhodamine B (SRB) solution (100 μl) at 0.4% (w/v) in 1% acetic acid is added to each well, and plates are incubated for 10 minutes at room temperature. After staining, unbound dye is removed by washing five times with 1% acetic acid and the plates are air dried. Bound stain is subsequently solubilised with 10 mM trizma base, and the absorbance is read on an automated plate reader at a wavelength of 515 nm. For suspension cells, the methodology is the same except that the assay is terminated by fixing settled cells at the bottom of the wells by gently adding 50 μl of 80% TCA (final concentration, 16% TCA). Using the seven absorbance measurements [time zero, (Tz), control growth, (C), and test growth in the presence of drug at the five concentration levels (Ti)], the percentage growth is calculated at each of the drug concentrations levels. Percentage growth inhibition is calculated as: [(Ti−Tz)/(C−Tz)]×100 for concentrations for which Ti>/=Tz and [(Ti−Tz)/Tz]×100 for concentrations for which Ti<Tz.
Three dose response parameters are calculated for each experimental agent. Growth inhibition of 50% (GI50) is calculated from [(Ti−Tz)/(C−Tz)]×100=50, which is the drug concentration resulting in a 50% reduction in the net protein increase (as measured by SRB staining) in control cells during the drug incubation. The drug concentration resulting in total growth inhibition (TGI) is calculated from Ti=Tz. The LC50 (concentration of drug resulting in a 50% reduction in the measured protein at the end of the drug treatment as compared to that at the beginning) indicating a net loss of cells following treatment is calculated from [(Ti−Tz)/Tz]×100=−50. Values are calculated for each of these three parameters if the level of activity is reached. However, if the effect is not reached or is exceeded, the value for that parameter is expressed as greater or less than the maximum or minimum concentration tested.

`CC(C)C[C@H](NC(=O)[C@H](COC(F)F)NC(=O)CN1CCOCC1)C(=O)N[C@@H](COC(F)F)C(=O)N[C@@H](CC(C)C)C(=O)[C@@]1(C)CO1` [Example 1, (2S)—N-[(1S)-1-(difluoromethoxymethyl)-2-[[(1S)-3-methyl-1-[(2R)-2-methyloxirane-2-carbonyl]butyl]amino]-2-oxo-ethyl]-2-[[(2S)-3-(difluoromethoxy)-2-[(2-morpholinoacetyl)amino]propanoyl]amino]-4-methyl-pentanamide] gave a remaining activity at 2 mg/kg [1] of 100%, a Log10GI50 (NCI-H226) of −7.73 and a Log10LC50 (NCI-H226) of −7.07. The Log10TGI50 (NCI-H226) was −7.40.

Work on `CC(C)C[C@H](NC(=O)[C@H](COC(F)F)NC(=O)CN1CCOCC1)C(=O)N[C@@H](Cc1ccccc1)C(=O)N[C@@H](CC(C)C)C(=O)[C@@]1(C)CO1` [Example 2, (2S)-N-[(1S)-1-benzyl-2-[[(1S)-3-methyl-1-[(2R)-2-methyloxirane-2-carbonyl]butyl]-amino]-2-oxo-ethyl]-2-[[(2S)-3-(difluoromethoxy)-2-[(2-morpholinoacetyl)amino]propanoyl]amino]-4-methyl-pentanamide] yielded a remaining activity at 2 mg/kg [1] of 100%, a Log10GI50 (NCI-H226) of −7.83 and a Log10LC50 (NCI-H226) of −7.12. For the same compound, the Log10TGI50 (NCI-H226) was −7.48.

In the case of `CC(C)C[C@H](NC(=O)[C@H](COC(F)F)NC(=O)CN1CCOCC1)C(=O)N[C@@H](Cc1ccccc1)C(=O)N[C@@H](Cc1ccccc1)C(=O)[C@@]1(C)CO1` [Example 3, (2S)-N-[(1S)-1-benzyl-2-[[(1S)-1-benzyl-2-[(2R)-2-methyloxiran-2-yl]-2-oxo-ethyl]amino]-2-oxo-ethyl]-2-[[(2S)-3-(difluoromethoxy)-2-[(2-morpholinoacetyl)-amino]propanoyl]amino]-4-methyl-pentan-amide], the remaining activity at 2 mg/kg [1] is reported as 100%, the Log10GI50 (NCI-H226) is reported as less than −8.00 and the Log10LC50 (NCI-H226) is reported as −7.24. The Log10TGI50 (NCI-H226) was −7.92.

In the case of `CC(C)C[C@H](NC(=O)[C@H](COC(F)F)NC(=O)CN1CCOCC1)C(=O)N[C@@H](COC(F)F)C(=O)N[C@@H](Cc1ccccc1)C(=O)[C@@]1(C)CO1` [Example 4, (2S)-N-[(1S)-2-[[(1S)-1-benzyl-2-[(2R)-2-methyloxiran-2-yl]-2-oxo-ethyl]amino]-1-(difluoromethoxymethyl)-2-oxo-ethyl]-2-[[(2S)-3-(difluoromethoxy)-2-[(2-mor-pholinoacetyl)amino]propanoyl]amino]-4 methyl-pentanamide], the remaining activity at 2 mg/kg [1] is reported as 100%, the Log10GI50 (NCI-H226) is reported as −7.66 and the Log10LC50 (NCI-H226) is reported as −6.57. For the same compound, the Log10TGI50 (NCI-H226) was −7.30.

`CC(C)C[C@H](NC(=O)[C@H](COC(F)F)NC(=O)[C@H](COC(F)F)NC(=O)[C@H](CCc1ccccc1)NC(=O)CN1CCOCC1)C(=O)[C@@]1(C)CO1` [Example 7, (2S)-N-[(1S)-1-(difluoromethoxymethyl)-2-[[(1S)-1-(difluoromethoxymethyl)-2-[[(1S)-3-methyl-1-[(2R)-2-methyloxirane-2-carbo-nyl]butyl]amino]-2-oxo-ethyl]amino]-2-oxo-ethyl]-2-[(2-morpholinoacetyl)amino]-4-phenyl-butanamide] was tested, and the remaining activity at 2 mg/kg [1] was 100%, the Log10GI50 (NCI-H226) was −7.75 and the Log10LC50 (NCI-H226) was −7.08. The Log10TGI50 (NCI-H226) was −7.41.

In the case of `CC(C)C[C@H](NC(=O)[C@H](Cc1ccccc1)NC(=O)[C@H](COC(F)F)NC(=O)[C@H](COC(F)F)NC(=O)CN1CCOCC1)C(=O)[C@@]1(C)CO1` [Example 11, (2S)-2-[[(2S)-3-(difluoromethoxy)-2-[[(2S)-3-(difluoromethoxy)-2-[(2-morpholinoacetyl)-amino]propanoyl]amino]propanoyl]amino]-N-[(1S)-3-methyl-1-[(2R)-2-methyloxirane-2-carbonyl]butyl]-3-phenyl-propanamide], the remaining activity at 2 mg/kg [1] is reported as 100%, the Log10GI50 (NCI-H226) is reported as −7.77 and the Log10LC50 (NCI-H226) is reported as −7.11. It also gave a Log10TGI50 (NCI-H226) of −7.44.

`CC(C)C[C@H](NC(=O)[C@H](COC(F)F)NC(=O)[C@H](COC(F)F)NC(=O)[C@H](COC(F)F)NC(=O)CN1CCOCC1)C(=O)[C@@]1(C)CO1` [Example 17, (2S)-3-(difluoromethoxy)-N-[(1S)-1-(difluoromethoxymethyl)-2-[[(1S)-1-(difluoro-methoxymethyl)-2-[[(1S)-3-methyl-1-[(2R)-2-methyloxirane-2-carbonyl]butyl]amino]-2-oxo-ethyl]amino]-2-oxo-ethyl]-2-[(2-mor-pholinoacetyl)amino]-propanamide] showed a remaining activity at 2 mg/kg [1] of 100%, a Log10GI50 (NCI-H226) of −7.15 and a Log10LC50 (NCI-H226) of −6.14. For the same compound, the Log10TGI50 (NCI-H226) was −6.61.
